# Reference: PubChem BioAssay (NCI)
#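 Interpolation was linear, between the two tested concentrations surrounding the appropriate level; five concentrations were tested over 48 hours in 96-well plates. TGI: concentration producing complete growth inhibition.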
# Legend:
# Assay in all cases: NCI tumour cell line growth inhibition, 48 h
# 786-0 renal = test system: 786-0 renal
# HL-60(TB) leukemia = test system: HL-60(TB) leukemia
# NCI-H460 lung = test system: NCI-H460 lung
# M14 melanoma = test system: M14 melanoma
# HOP-92 NSCLC = test system: HOP-92 NSCLC
# HOP-62 NSCLC = test system: HOP-62 NSCLC
# IGROV1 ovarian = test system: IGROV1 ovarian
# SK-MEL-2 melanoma = test system: SK-MEL-2 melanoma
# EKVX NSCLC = test system: EKVX NSCLC
# RXF 393 renal = test system: RXF 393 renal
SMILES,TGI (786-0 renal) [µM],TGI (HL-60(TB) leukemia) [µM],TGI (NCI-H460 lung) [µM],TGI (M14 melanoma) [µM],TGI (HOP-92 NSCLC) [µM],TGI (HOP-62 NSCLC) [µM],TGI (IGROV1 ovarian) [µM],TGI (SK-MEL-2 melanoma) [µM],TGI (EKVX NSCLC) [µM],TGI (RXF 393 renal) [µM]
CCCC(C)n1c(C)nc2c1C(=O)c1ccccc1C2=O (stereo not given),> 100,> 100,16.8,93.7,66.8,> 100,> 100,47.1,> 100,69.2
C=CCc1cc(-c2cc(CC=C)c(O)c(CN(CC)CC)c2)cc(CN(CC)CC)c1O,> 100,> 86.3,64.9,23.4,96.9,76.8,> 100,60.3,> 100,52
CSc1c(C#N)c(N)nc2c(N=Nc3ccc(Br)cc3)c(N)nn12,11.3,9.1,> 49.1,24.6,18.9,32.3,8.82,17.2,23.9,21
CC(=O)OC(Cc1ccc2ccccc2n1)(C(F)(F)F)C(F)(F)F,6.37,0.352,18.5,3.48,0.933,27.9,6.02,4.36,10.2,2.84
O=c1oc2ccc([N+](=O)[O-])cc2c(Nc2ccc3c(c2)Sc2ccccc2O3)c1[N+](=O)[O-],39.9,46.8,57.8,41.6,41.6,44.7,54.9,40.4,68.8,40.2
